The structures appear in SMILES notation.

A short description of this series: Human HepG2 cell viability assay in 384 well format. Type of series: toxicity, cell-based. The arrangement: dose 125 nL, time 70.5 hour; concentration not given beside the values. The following applies: HepG2 cells, read-out: Inhibition.
On to `Cc1ccc(O)c(C(=O)NCCCS(=O)(=O)Cc2ccccc2)c1`, for which the cytotoxicity at 70.5 h is -11.4%. Under `O=S(=O)(CC1CCCN1S(=O)(=O)C1CC1)c1ccccc1` (stereo not given) stands -6.46%. For `CN(C)Cc1ccc(C2CCCCN2C(=O)c2cc(=O)[nH]c(=O)[nH]2)cc1` (stereo not given) the value was -5.8%. As to `CCn1c(C2CCN(C(=O)c3cc(CC(C)C)no3)CC2)nn(C)c1=O`, the cytotoxicity at 70.5 h worked out at 3.74%. Under `CNC(=O)c1cc2c(nc1N(C)C)CCN(c1ncccn1)CC2` stands -12%; under `CNS(=O)(=O)CC(=O)N(Cc1c(F)cccc1F)C1CCCC1`, 1.88%; under `Cc1ccoc1C(=O)N1CC[C@H]2OCC[C@@]2(COCc2ccncc2)C1`, -5.41%. As for `Cc1cc(N2CCCC(OC(=O)CCc3cnn(C)c3)C2)nc(C)n1` (stereo not given), the cytotoxicity at 70.5 h was -11.2%.

For the compound `Cc1c(CNS(=O)(=O)c2cccc(COC(C)C)c2)cnn1C`, the cytotoxicity at 70.5 h is -5.71%. On to `Cc1nc(CNCC2COCc3c(-c4ccoc4)nnn3C2)cs1` (stereo not given), for which the cytotoxicity at 70.5 h is -6.23%. With `O=C(Cc1ccccc1F)N1CCC[C@@H]1Cn1c(=O)oc2ccccc21`, the cytotoxicity at 70.5 h was found to be 6.08%. Under `CCC(=O)N1CCCCC1c1nc(O)c2c(n1)CN(C(C)=O)CC2` (stereo not given) stands -2.47%; under `CCS(=O)(=O)NCc1nc(C)cc(N2CCOCC2)n1`, -6.72%. As to `CC(Cn1cccn1)NC(=O)NCCCN1CCc2ccccc21` (stereo not given), the cytotoxicity at 70.5 h was -0.512%. For `CN(C)C1COC2(CCN(S(=O)(=O)c3ccc(F)cc3)CC2)C1` (stereo not given) the value was -13.4%. For `CN(C)C(=O)c1cccc(CCNS(=O)(=O)c2ccccc2)c1` the value was -1.77%.

For `CN(C)c1nc(N2CCCC2)nc2c1CCN(C(=O)c1ccoc1)CC2`, the cytotoxicity at 70.5 h was 0.617%. For `Cn1cnnc1C1CCCN(C(=O)NCCNc2ccccn2)C1` (stereo not given), the cytotoxicity at 70.5 h is -15.9%. On to `CCOc1cc2c(cc1C(=O)O)CCC2`, for which the cytotoxicity at 70.5 h stood at 11.4%.

For `Cc1cccnc1CN1CCN(C(=O)c2cc(Cl)c[nH]c2=O)CC1`, the cytotoxicity at 70.5 h was found to be 8.42%.

Turning to `CS(=O)(=O)N(Cc1ccon1)c1ccc2c(c1)OCO2`, the cytotoxicity at 70.5 h is -6.03%. Under `CCOCCN1CCN(CCCS(C)(=O)=O)CC1C` (stereo not given) stands 11.8%. Under `O=C(NCC(O)c1ccc(Cl)s1)c1ccoc1` (stereo not given) stands -8.52%.

For `CC(C)c1ncc2c(n1)CN(CC1CCCCO1)CC2` (stereo not given), the cytotoxicity at 70.5 h was -2.55%.

Consider `COc1ccc(OCC(=O)NS(=O)(=O)c2ccc(Cl)s2)cc1`, for which the cytotoxicity at 70.5 h is -8.59%.

`COCc1nn(C(C)C)c2c1CCN(Cc1ccoc1)C2`: the cytotoxicity at 70.5 h is -6.52%. Under `CCn1ncnc1C1CC(=O)NCc2nc(N3CCCC3)sc21` (stereo not given) stands -21.6%; under `CCn1nnc(NCc2ccc(-c3ccc(Br)cc3)o2)n1`, -7.12%; under `CC(C)n1c(=O)nc2n1C(=O)N(c1ccccc1)C2`, -5.73%.

For `CN(Cc1nccn1C)c1nccc(N2CCCC(O)C2)n1` (stereo not given), the cytotoxicity at 70.5 h was determined as 2.11%. For the compound `c1cc(CN2CC[C@H]3O[C@@H](COCC4CCOCC4)CC[C@H]32)ccn1`, the cytotoxicity at 70.5 h came to 23.2%. For the compound `CCc1ncc(-c2cn(CCSc3ncn[nH]3)nn2)cn1`, the cytotoxicity at 70.5 h is -11.1%. Under `c1cnnc(N2CCCC2CNCc2nc(-c3ccco3)no2)c1` (stereo not given) stands -14.5%; under `CN(c1ncccc1CNC(=O)c1cscn1)C1CCCCC1`, 0.847%; under `Cc1cccc(NC2CCN(C(=O)Nc3cc(C)on3)CC2)n1`, -14.3%. Consider `CC(=O)N1CCC(c2nccnc2C)CC1`, for which the cytotoxicity at 70.5 h was -1.76%. Regarding `COc1ccccc1CN1C[C@@H]2CN(Cc3cccnc3)CCO[C@@H]2C1`, the cytotoxicity at 70.5 h came out at 12.8%. Under `CCc1ccc(CN2CCC3(CC2)NC(=O)CC3c2ccncc2)o1` (stereo not given) stands -23%; under `CCn1nc(CNC(=O)C2CC(=O)N(C3CCCC3)C2)c2ccccc21` (stereo not given), 13.8%; under `O=C(CCCN1CCOC1=O)Nc1cnn(-c2ccccc2Cl)c1`, -5.24%. For `O=C(CSCC1CC1)N1C[C@@H]2CC[C@H](C1)N(Cc1ccccn1)C2=O` the value was -8.12%; for `O=C1CN(C(=O)C2CN(c3cccc(F)c3)CCO2)CCN1` (stereo not given), -5.92%. Under `Cc1cc(CN(C)C(=O)CNS(=O)(=O)c2cccs2)no1` stands -6.5%; under `Cc1ccnc(C2CCCN2C(=O)CN(C)C)n1` (stereo not given), -1.48%.

Regarding `COc1ccc(CSCC(O)CO)c(Cl)c1` (stereo not given), the cytotoxicity at 70.5 h came to 18.2%.

`CCC1CN(C(=O)c2cnc(-c3cnn(C)c3)s2)CCO1` (stereo not given): the cytotoxicity at 70.5 h is -6.34%. On to `Cc1noc(C)c1CNC[C@@]1(COc2cccnc2)C[C@@H](O)[C@@H](O)C1`, for which the cytotoxicity at 70.5 h is -8.56%. On to `Cc1nnc(N2CC[C@H](OCC3CC3)[C@@H](Cc3ccccc3)C2)s1`, for which the cytotoxicity at 70.5 h came out at 11.8%. For `Cc1cc(CN2CCN(Cc3ccc(C#N)cc3OC(F)F)CC2)no1` the value was 18.7%; for `O=S(=O)(c1ccc(Cl)cc1)N1CCc2nc(C3CCNCC3)ncc2C1`, -4.46%.

For `Cc1ccc(N2C[C@@H]3CN(Cc4csc(C)n4)CCO[C@@H]3C2)nn1`, the cytotoxicity at 70.5 h was -2.48%. For `COc1cccc(COCC(=O)N2CCCC(c3nncn3C)C2)c1` (stereo not given) the value was -12.7%; for `CNC(=O)c1ccc(CN2CCC(N(C)Cc3noc(C)n3)C2)cc1` (stereo not given), -0.459%. Under `Cc1cc(C(F)(F)F)cc(=O)n1CCCn1cnnn1` stands -11.2%; under `CC(C)c1nc(C2CCCN(C(=O)CCCn3ccnc3)C2)no1` (stereo not given), -0.752%. For `Cc1nn(C)c2nc(-c3ccccn3)nc(NCCC3CCCN3C)c12` (stereo not given), the cytotoxicity at 70.5 h was 1.37%. Under `CCOc1ccc(Cl)c(C(=O)NCCC(=O)Nc2ccncc2)n1` stands 0.642%; under `CN(CC1CCCC1)C(=O)c1cn(C)nc1-c1cccnc1`, -3.43%. Under `CCOCc1ncn2c1CN(S(=O)(=O)c1ccc(F)cc1)CC2` stands 9.27%; under `N#Cc1ccc(S(=O)(=O)NC(=O)C2CC2)c(C(F)(F)F)c1`, -13.8%; under `O=C(c1cscn1)N1CCC2(CN(Cc3nccs3)C2)C1`, -11.9%.

`CCOC(=O)COC1CCN(C(C)=O)CC(=O)N(C)c2ccccc21` (stereo not given): the cytotoxicity at 70.5 h was -3.91%.

Consider `COCCN(C)C[C@@H]1CN(C(=O)c2ccc(=O)n(C)c2)C[C@@H]1CO`, for which the cytotoxicity at 70.5 h is -3.56%. With `c1ccc(Cc2nnc(CN3CCc4cncnc4C3)o2)cc1`, the cytotoxicity at 70.5 h amounted to 1.25%. For `CCCN1C[C@H]2CC[C@@H]1CN(C(=O)Cc1c(C)nc(CC)[nH]c1=O)C2` the value was -8.7%. Under `Cc1ccoc1C(=O)N1C[C@@H](OCC2CCOCC2)[C@H]2OCCC[C@H]21` stands 8.35%; under `Cc1nc(CNC(=O)N(Cc2ccccc2)CC(C)(C)O)oc1C`, -3.06%; under `CN(C)S(=O)(=O)N1C[C@@H](OCc2cccnc2)[C@H]2OCCC[C@H]21`, 12.6%. Under `O=C1CC[C@@H]2[C@@H](CCN2Cc2ccncc2)N1c1ccccc1` stands 4.02%. Turning to `O=C(c1c(O)cc(F)cc1F)N1CCc2cnccc21`, the cytotoxicity at 70.5 h was determined as 0.9%.

(Values after ChEMBL document CHEMBL3507680, “University of Dundee, Gates Library screen for HepG2 cell viability”.)
